Laboratory results: patent publication US9895363B2, “Methods for modulating function of proliferating cell nuclear antigen (PCNA) and treating cancer with PCNA-targeting compounds” (University of Cincinnati, priority 2010, dated 2018)
Read-outs that look alike come from different tables or passages of the source. Values belong to the compound of their own block, whether it stands above or below them.

Assays:
[1] = tested on: DU145 prostate cancer cells; assay: Growth inhibition by MTT staining, DU145; assay type: cell-based; conditions: DU-145, 96 h, Human tumor cells, treated four days
Protocol: (§1) Growth inhibitory effects of PCNA-I1 and PCNA-I2 were assessed in human cancer cell lines, mouse cancer cell lines, immortalized mouse cell lines, and human primary cell lines. Specifically, growth inhibitory effects of PCNA-I1 and PCNA-I2 were assessed using MTT staining in the following cells lines: 1) human cancer cell lines including LNCaP (androgen receptor […]), 22Rv1, DU-145, LAPC-4, and PC-3 (androgen receptor […]) prostate cancer cells; MCF-7 and T47D breast cancer cells; A375 and MDA-MB435 melanoma cells; 2) mouse cancer cell lines including TRAMP-C2RE3 prostate cancer cells, B16 and K1735 melanoma cells, UV2237 fibrosarcoma cells, and CT-26 colon cancer cells; 3) immortalized mouse lung cell lines and mouse endothelial cell lines; and 4) primary human cell lines including umbilical endothelial cells (HUVEC, PromoCell, Heidelberg, Germany), primary bone marrow mesenchymal stem cells (HuMSC, PromoCell), primary human mammary epithelial cells (HuBrEC, Lonza, Walkersville, Md.), primary human prostate epithelial cells (HuPrEC, Lonza), and primary mouse spleen lymphocytes (isolated in this laboratory), and primary mouse bone marrow stromal cells (isolated in this laboratory). […]
(§2) IC50 values were derived from growth inhibition curves. […] Inhibition of cell growth was calculated using the formula: growth inhibition (%)=(1−A570 of treated/A570 of control)×100. […]

[2] = tested on: Tumor Cells; assay: Growth inhibition, mean over tumor cell lines; assay type: cell-based; conditions: most cell lines examined
Protocol: as §1, §2

[3] = tested on: GFP-PCNA; assay: GFP-PCNA chromatin association, fluorescence microscopy; assay type: cell-based, Human; conditions: PC-3 transfected with pGFP-PCNA; 4 H, 0.5 μM PCNA-I1 or 2 μM PCNA-I2; FIG. 11
Protocol: Additionally, PC-3 cells were transfected for 24 H with pGFP-PCNA. The cells were then treated for 4 H with 0.5 μM of PCNA-I1 or 2 μM of PCNA-I2. The intact GFP-PCNA expressing cells were observed under a fluorescent microscope and recorded. After treatment with a buffer with 0.5% NP-40 buffer B, the cells were examined and recorded.

[4] = tested on: A375 melanoma cells; assay: Growth inhibition by MTT staining, A375; assay type: cell-based; conditions: A-375, 96 h, Human, treated four days
Protocol: as §1, §2

[5] = tested on: MCF-7 breast cancer cells; assay: Growth inhibition by MTT staining, MCF-7; assay type: cell-based; conditions: MCF7, 96 h, Human, tumor cells, treated four days
Protocol: as §1, §2

[6] = target: T1, PCNA (Homo sapiens, UniProt P12004); assay: PCNA trimer formation assay, PC-3 cell lysate; assay type: biochemical; conditions: PC-3 lysate, 1 μM or 10 μM, 3 H, SDS-PAGE; FIG. 9(A)
T1 construct: endogenous PCNA was knocked down with transfection of PCNA-specific siRNA; endogenous in cells; host or cells: PC-3
T1 sequence (P12004 whole entry): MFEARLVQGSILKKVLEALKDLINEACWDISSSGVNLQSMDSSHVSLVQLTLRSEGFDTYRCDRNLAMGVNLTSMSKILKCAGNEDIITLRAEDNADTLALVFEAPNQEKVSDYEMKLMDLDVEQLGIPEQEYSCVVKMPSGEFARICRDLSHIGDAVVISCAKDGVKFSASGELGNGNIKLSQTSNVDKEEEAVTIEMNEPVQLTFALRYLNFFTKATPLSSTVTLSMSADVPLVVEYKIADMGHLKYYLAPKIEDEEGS
Protocol: The effect of PCNA-I1, PCNA-I2, PCNA-I3, PCNA-I4, PCNA-I6, PCNA-I7, PCNA-I8, PCNA-I9, and PCNA-I10 on PCNA trimer formation was investigated by SDS-PAGE and immunoblotting. Specifically, a trimer formation assay was performed on both PC-3 cell lysates and purified recombinant protein. The trimer formation assay was performed on purified recombinant protein to determine whether the effects of PCNA compounds on the stable trimer formation required the participation of other cellular proteins.
Purified His-PCNA (0.1 μg/reaction) and PC-3 cell lysates (50 μg/reaction) were incubated for 3 H at room temperature in a reaction buffer (40 mM Tris-HCl, pH 7.5, 0.2 mg/mL BSA, 10 mM MgCl2, and 10% glycerol) in the absence or presence of DMSO (0.1% vehicle control) or PCNA-I1, PCNA-I2, PCNA-I3, PCNA-I4, PCNA-I6, PCNA-I7, PCNA-I8, PCNA-I9, or PCNA-I10 (1 μM or 10 μM). The reaction was stopped by addition of the SDS-PAGE sample buffer without a reducing agent. The samples were resolved in SDS-PAGE without boiling and analyzed by immunoblotting using PCNA antibody.

[7] = tested on: LAPC-4 prostate cancer cells; assay: Growth inhibition by MTT staining, LAPC-4; assay type: cell-based; conditions: LAPC4, 96 h, Human tumor cells, treated four days
Protocol: as §1, §2

[8] = tested on: LNCaP prostate cancer cells; assay: Growth inhibition by MTT staining, LNCaP; assay type: cell-based, Human; conditions: 96 h
Protocol: (§3) Growth inhibitory effects of PCNA-I1 and PCNA-I2 were assessed in human cancer cell lines, mouse cancer cell lines, immortalized mouse cell lines, and human primary cell lines. Specifically, growth inhibitory effects of PCNA-I1 and PCNA-I2 were assessed using MTT staining in the following cells lines: 1) human cancer cell lines including LNCaP (androgen receptor […]), 22Rv1, DU-145, LAPC-4, and PC-3 (androgen receptor […]) prostate cancer cells; MCF-7 and T47D breast cancer cells; A375 and MDA-MB435 melanoma cells; 2) mouse cancer cell lines including TRAMP-C2RE3 prostate cancer cells, B16 and K1735 melanoma cells, UV2237 fibrosarcoma cells, and CT-26 colon cancer cells; 3) immortalized mouse lung cell lines and mouse endothelial cell lines; and 4) primary human cell lines including umbilical endothelial cells (HUVEC, PromoCell, Heidelberg, Germany), primary bone marrow mesenchymal stem cells (HuMSC, PromoCell), primary human mammary epithelial cells (HuBrEC, Lonza, Walkersville, Md.), primary human prostate epithelial cells (HuPrEC, Lonza), and primary mouse spleen lymphocytes (isolated in this laboratory), and primary mouse bone marrow stromal cells (isolated in this laboratory). PCNA-I1 and PCNA-I2 were either provided by the University of Cincinnati Drug Discovery Center (UC-DDC, Cincinnati, Ohio) or were purchased from Chembridge Co (San Diego, Calif.), ChemDiv (San Diego, Calif.), and/or Sigma-Aldrich (St Louis, Mo.).
(§4) Growth inhibitory effects of the compounds were assessed by MTT staining as described previously by Dong et al. in In Vitro Model for Intrinsic Drug Resistance: Effects of Protein Kinase C Activators on the Chemosensitivity of Cultured Human Colon Cancer Cells; Mol. Pharmacol. 1991; 39: 563-9. Briefly, cells were cultured and treated in their respective media. Cells were plated into 96-well plates at 1000 to 5000 cells/well. After an overnight incubation, the cells were treated for four days with various concentrations (up to 10 μM) of PCNA-I1 or PCNA-I2. The live cells were stained with MTT and cells in exponential growth phase were harvested by a one to three minute treatment with a 0.25% trypsin-0.02% EDTA solution. Flasks were tapped to detach the cells, RPMI 1640-10% FBS was added, and the cell suspensions were gently agitated to produce single-cell suspensions. The cell suspensions were washed and resuspended in medium with supplements specified for different cells. Only suspensions of single cells with a viability exceeding 95% (ascertained by trypan blue exclusion) were used.
(§5) IC50 values were derived from growth inhibition curves. Data for tumor cells are a mean of five to seven experiments. Data for primary cells are a mean of three experiments. […] Inhibition of cell growth was calculated using the formula: growth inhibition (%)=(1−A570 of treated/A570 of control)×100. IC50 (the concentration that inhibited cell growth by 50%) values were also determined. For evaluation of lymphocyte growth in suspension, an Alamar blue assay was performed, wherein freshly prepared mouse spleen lymphocytes were stimulated for 72 H with 2 ug/mL concanavalin A (Sigma Chemicals, St. Louis, […].). During the last 24 H, 20 μl/well of Alamar blue (Invitrogen, Carlsbad, Calif.) was added. The fluorescence intensity was measured at 530/580 (excitation/emission) in the FLUOstar Omega microplate reader (BMG LABTECH, Cary, N.C.).
(§6) Growth inhibitory effects of PCNA-I3, PCNA-I4, PCNA-I6, PCNA-I7, PCNA-I8, PCNA-I9 and PCNA-I10 were assessed in human prostate cancer cell lines. Specifically, growth inhibitory effects of PCNA-I3, PCNA-I4, PCNA-I6, PCNA-I7, PCNA-I8, PCNA-I9 and PCNA-I10 were assessed using MTT staining in LNCaP and PC-3 cells. […]

[9] = tested on: PC-3 prostate cancer cells; assay: Growth inhibition by MTT staining, PC-3; assay type: cell-based, Human; conditions: MTT
Protocol: as §3, §4, §5, §6

[10] = tested on: LNCaP cells; assay: MTT assay, PCNA-I1 and cisplatin alone or combined, LNCaP; assay type: cell-based, Human
Protocol: (§7) LNCaP or PC-3 cells were treated with a variety of concentrations of PCNA-I1 (0.1-10 μM) or cisplatin (0.1-10 μM) alone, or with a variety of concentrations of a combination of PCNA-I1 (0.1-10 μM) and cisplatin (0.1-10 μM) for four days. MTT assays were performed and IC50 values for PCNA-I1 and cisplatin were determined.

[11] = tested on: PC-3 cells; assay: MTT assay, PCNA-I1 and cisplatin alone or combined, PC-3; assay type: cell-based, Human
Protocol: as §7

[12] = tested on: LNCaP cells; assay: DNA damage, apoptosis and cell cycle proteins by immunoblot, LNCaP; assay type: cell-based, Human
Protocol: Fluorescence-activated cell sorting (FACS) analysis was performed on both PC-3 cells and LNCaP cells using PCNA-I1. Specifically, cells were treated with 1 or 10 μM PCNA-I1 and sampled for the flow cytometry analysis at 24 H, 48 H, and 72 H. Expression of DNA damage and apoptosis-related proteins in PC-3 cells and LNCaP cells was also determined. Cisplatin, a well-known drug that induces DNA damage and apoptosis, was included in the experiment. LNCaP cells were treated for 6 H, 12 H, or 18 H with 10 μM PCNA-I1, 10 μM cisplatin, or both.
To further explore the differential effects of PCNA-I1 on LNCaP and PC-3 cells, the effects of PCNA-I1 and cisplatin on expression of cell cycle- and apoptosis-related proteins in the two cell lines were compared. LNCaP cells and PC-3 cells were treated with 1 μM PCNA-I1 and/or 5 μM cisplatin for 12 H, 18 H, or 24 H and cell lysates were sampled for immunoblotting.

[13] = tested on: primary mouse spleen lymphocytes; assay: Alamar blue assay of lymphocyte growth; assay type: cell-based; conditions: 2 μg/mL, 72 H; FIG. 2(A)
Protocol: as §5
The effects of PCNA-I1 on growth of tumor cells versus primary cells was also investigated. Specifically, the effects of PCNA-1I on the growth of primary cells was investigated using primary culture of mouse lymphocytes. An Alamar blue assay was performed with PC-3 cells as a positive control. Freshly prepared mouse spleen lymphocytes were stimulated for 72 H with 2 μg/mL of concanavalin A. During the last 24 H, 20 μL/well of alamar blue was added. The fluorescence intensity was measured at 530/580 (excitation/emission).

[14] = Homo sapiens, Table III, four days, mean of two experiments, read-out: IC50 Values of PCNA Inhibitors, LNCaP Cells
[15] = Homo sapiens, PC-3, 96 h, Table III, four days, mean of two experiments, read-out: IC50 Values of PCNA Inhibitors, PC-3 Cells

IC50 [1]: 1190 nM | IC50 [4]: 3750 nM | IC50 [5]: 1010 nM | Portion of PCNA in the trimer form [6]: significantly elevated | IC50 [7]: 1790 nM | IC50 ([8]; Table II, Human tumor cells, treated four days, mean of five to seven experiments, read-out: IC50 Values, LNCaP): 560 nM | IC50 ([9]; 96 h, Table II, Human tumor cells, treated four days, mean of five to seven experiments, read-out: IC50 Values, PC-3): 970 nM
Compound: O=C(N/N=C/c1c(O)ccc2ccccc12)c1ccn[nH]1 [PCNA-I2]
Potency relative to PCNA-I1 [2]: about three to five times less potent than PCNA-I1 | Level of chromatin-associated GFP-PCNA [3]: reduced the level of chromatin-associated GFP-PCNA | Total intensity of GFP-PCNA [3]: did not significantly alter the total intensity of GFP-PCNA

IC50 [8, 14]: 260 nM | IC50 [9, 15]: 440 nM
Compound: O=C(N/N=C/c1ccc2ccccc2c1O)c1cccc(Cl)c1 [PCNA-I3]

IC50 [8, 14]: 680 nM | IC50 [9, 15]: 3000 nM
Compound: O=C(NNS(=O)(=O)c1ccc(Br)cc1)c1c(O)c2ccccc2[nH]c1=O [PCNA-I4]

IC50 [8, 14]: > 10000 nM | IC50 [9, 15]: > 10000 nM
Compound: Cc1ccc2[nH]c(=O)c(/C=N/NC(=O)c3ccccc3)c(O)c2c1 [PCNA-I6]

IC50 [8, 14]: 2200 nM | IC50 [9, 15]: 3600 nM
Compound: O=C(N/N=C/c1ccc2ccccc2c1O)c1sc2ccccc2c1O [PCNA-I7]

IC50 [8, 14]: 680 nM | IC50 [9, 15]: 1000 nM
Compound: C/C(=N\NC(=O)c1cccc(F)c1)c1ccc2ccccc2c1O [PCNA-I8]

IC50 [8, 14]: 710 nM | IC50 [9, 15]: 2200 nM
Compound: C/C(=N\NC(=O)c1ccccc1O)c1ccc2ccccc2c1O [PCNA-I9]

IC50 [8, 14]: 2200 nM | IC50 [9, 15]: > 10000 nM
Compound: O=C(NNC(=O)c1c(O)c2ccccc2[nH]c1=O)c1ccccc1[N+](=O)[O-] [PCNA-I10]

Compound: N.N.[Cl][Pt][Cl] [cisplatin, reference compound]
IC50 ([10]; MTT, four days, single agent, read-out: IC50 doses for cell growth inhibition, LNCaP, agent alone): 650 nM | IC50 ([10]; combined with 0.067 μM PCNA-I1, read-out: Cisplatin concentration giving 50% inhibition in combination, LNCaP): 300 nM | IC50 ([11]; MTT, four days, single agent, read-out: IC50 doses for cell growth inhibition, PC-3, agent alone): 450 nM | IC50 ([11]; combined with 0.08 μM PCNA-I1, read-out: Cisplatin concentration giving 50% inhibition in combination, PC-3): 300 nM | Expression of retinoblastoma (Rb) and cyclin D1 ([12]; LNCaP and PC-3, 1 μM PCNA-I1 and/or 5 μM cisplatin, 12-24 H): moderately downregulated expression of cell cycle-regulating proteins | Phosphorylation of p53, single agent ([12]; LNCaP, 10 μM): induced | Expression of p21 protein ([12]; LNCaP, 10 μM PCNA-I1 and/or 10 μM cisplatin): enhanced expression of p21 protein at 6 H and 12 H | PARP cleavage, single agent ([12]; LNCaP, 10 μM alone): induced PARP cleavage | DNA double strand break (γH2AX induction), single agent ([12]; LNCaP, 10 μM alone, 6-18 H, FIG. 17(A)): induced moderate double strand break (DSB) of DNA

Compound: concanavalin A [reference compound]
Stimulation of lymphocyte growth [13]: about 3.5 fold
